{"source": "patent US7138361B2", "about": "“Herbicidal heterocycles” (E. I. du Pont de Nemours and Company, priority 2000, dated 2006)", "type_in_all_cases": "in vivo", "key": {"[1]": {"test_system": "crabgrass (Digitaria sanguinalis)", "assay": "Test B postemergence", "outline": "(§1)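 Visual injury scores, 0 = no effect to 100 = complete control, assigned against controls after 13 to 15 days in the greenhouse. Compounds formulated in non-phytotoxic solvent plus surfactant and applied to soil after planting (pre) or onto foliage of 1- to 4-leaf plants (post).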"}, "[2]": {"test_system": "corn (Zea mays)", "assay": "Test B postemergence", "outline": "as §1"}, "[3]": {"test_system": "Surinam grass (Brachiaria decumbens)", "assay": "Test B postemergence", "outline": "as §1"}, "[4]": {"test_system": "giant foxtail (Setaria faberii)", "assay": "Test B postemergence", "outline": "as §1"}, "[5]": {"test_system": "lambsquarters (Chenopodium album)", "assay": "Test B postemergence", "outline": "as §1"}, "[6]": {"test_system": "pigweed (Amaranthus retroflexus)", "assay": "Test B postemergence", "outline": "as §1"}, "[7]": {"test_system": "morning glory (Ipomoea hederacea)", "assay": "Test B postemergence", "outline": "as §1"}, "[8]": {"test_system": "barnyardgrass (Echinochloa crus-galli)", "assay": "Test B postemergence", "outline": "as §1"}, "[9]": {"test_system": "velvetleaf (Abutilon theophrasti)", "assay": "Test B postemergence", "outline": "as §1"}, "[10]": {"test_system": "wheat (Triticum aestivum)", "assay": "Test B postemergence", "outline": "as §1"}, "[11]": {"test_system": "wild oat (Avena fatua)", "assay": "Test B postemergence", "outline": "as §1"}, "[12]": {"test_system": "blackgrass (Alopecurus myosuroides)", "assay": "Test B postemergence", "outline": "as §1"}, "[13]": {"test_system": "cocklebur (Xanthium strumarium)", "assay": "Test B postemergence", "outline": "as §1"}, "[14]": {"test_system": "duck salad (Heteranthera limosa)", "assay": "Test C flooded paddy test", "conditions": "for Plant response rating, Ducksalad: scale 0 to 100 (0 no effect, 100 complete control)", "outline": "(§2)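 Each species was cultivated to 2 leaves in flooded paddy pots, then treated. After a greenhouse period of 12–14 days, the plants were scored visually relative to controls from 0 (no effect) to 100 (complete control).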"}, "[15]": {"test_system": "smallflower flatsedge (Cyperus difformis)", "assay": "Test C flooded paddy test", "conditions": "for Plant response rating, Flatsedge: scale 0 to 100 (0 no effect, 100 complete control)", "outline": "as §2"}, "[16]": {"test_system": "barnyardgrass (Echinochloa crus-galli)", "assay": "Test C flooded paddy test", "conditions": "for Plant response rating, Barnyardgrass: scale 0 to 100 (0 no effect, 100 complete control)", "outline": "as §2"}, "[17]": {"test_system": "rice (Oryza saliva)", "assay": "Test C flooded paddy test", "conditions": "for Plant response rating, Rice: scale 0 to 100 (0 no effect, 100 complete control)", "outline": "as §2"}, "[18]": {"test_system": "crabgrass (Digitaria sanguinalis)", "assay": "Test B preemergence", "outline": "as §1"}, "[19]": {"test_system": "corn (Zea mays)", "assay": "Test B preemergence", "outline": "as §1"}, "[20]": {"test_system": "Surinam grass (Brachiaria decumbens)", "assay": "Test B preemergence", "outline": "as §1"}, "[21]": {"test_system": "giant foxtail (Setaria faberii)", "assay": "Test B preemergence", "outline": "as §1"}, "[22]": {"test_system": "lambsquarters (Chenopodium album)", "assay": "Test B preemergence", "outline": "as §1"}, "[23]": {"test_system": "pigweed (Amaranthus retroflexus)", "assay": "Test B preemergence", "outline": "as §1"}, "[24]": {"test_system": "morning glory (Ipomoea hederacea)", "assay": "Test B preemergence", "outline": "as §1"}, "[25]": {"test_system": "barnyardgrass (Echinochloa crus-galli)", "assay": "Test B preemergence", "outline": "as §1"}, "[26]": {"test_system": "velvetleaf (Abutilon theophrasti)", "assay": "Test B preemergence", "outline": "as §1"}, "[27]": {"test_system": "rice (Oryza saliva)", "assay": "Test B preemergence", "outline": "as §1"}, "[28]": {"test_system": "cocklebur (Xanthium strumarium)", "assay": "Test B preemergence", "outline": "as §1"}, "[29]": {"conditions": "Rate 125 g/ha, scale 0 to 100, 0 no effect, 100 complete control"}, "[30]": {"conditions": "Rate 500 g/ha, scale 0 (no effect) to 100 (complete control), 13 to 15 days"}, "[31]": {"conditions": "Flooded Paddy, Rate 500 g/ha, scale 0 to 100, 0 no effect, 100 complete control"}, "[32]": {"conditions": "flooded paddy test, Rate 125 g/ha"}, "[33]": {"conditions": "flooded paddy test, Rate 250 g/ha"}, "[34]": {"conditions": "flooded paddy test, Rate 62 g/ha, visually evaluated after 12 to 14 days, 0 = no effect, 100 = complete control"}, "[35]": {"conditions": "Preemergence, Rate 500 g/ha, scale 0 to 100, 0 no effect, 100 complete control"}, "[36]": {"conditions": "preemergence, Rate 125 g/ha, scale of 0 to 100 where 0 is no effect and 100 is complete control, 13 to 15 days"}}, "data": [{"smiles": "COc1cc(C)nc(N2CCC(n3ccc(C(C)(C)C)n3)C2=O)n1", "note": "(stereo not shown) [Compound 137]", "values": [{"measurement": "Plant response rating, Crabgrass", "setting": "[1]; [29]", "value": 0}, {"measurement": "Plant response rating, Crabgrass", "setting": "[1]; [30]", "value": 0}, {"measurement": "Plant response rating, Corn", "setting": "[2]; [29]", "value": 0}, {"measurement": "Plant response rating, Corn", "setting": "[2]; [30]", "value": 0}, {"measurement": "Plant response rating, Surinam grass", "setting": "[3]; [29]", "value": 0}, {"measurement": "Plant response rating, Surinam grass", "setting": "[3]; [30]", "value": 0}, {"measurement": "Plant response rating, Foxtail, Giant", "setting": "[4]; [29]", "value": 0}, {"measurement": "Plant response rating, Foxtail, Giant", "setting": "[4]; [30]", "value": 90}, {"measurement": "Plant response rating, Lambsquarters", "setting": "[5]; [29]", "value": 0}, {"measurement": "Plant response rating, Lambsquarters", "setting": "[5]; [30]", "value": 0}, {"measurement": "Plant response rating, Pigweed", "setting": "[6]; [29]", "value": 0}, {"measurement": "Plant response rating, Pigweed", "setting": "[6]; [30]", "value": 0}, {"measurement": "Plant response rating, Morningglory", "setting": "[7]; [29]", "value": 0}, {"measurement": "Plant response rating, Morningglory", "setting": "[7]; [30]", "value": 0}, {"measurement": "Plant response rating, Barnyardgrass", "setting": "[8]; [29]", "value": 0}, {"measurement": "Plant response rating, Barnyardgrass", "setting": "[8]; [30]", "value": 0}, {"measurement": "Plant response rating, Velvetleaf", "setting": "[9]; [29]", "value": 0}, {"measurement": "Plant response rating, Velvetleaf", "setting": "[9]; [30]", "value": 0}, {"measurement": "Plant response rating, Wheat", "setting": "[10]; [29]", "value": 0}, {"measurement": "Plant response rating, Wheat", "setting": "[10]; [30]", "value": 0}, {"measurement": "Plant response rating, Wild Oat", "setting": "[11]; [29]", "value": 0}, {"measurement": "Plant response rating, Wild Oat", "setting": "[11]; [30]", "value": 0}, {"measurement": "Plant response rating, Blackgrass", "setting": "[12]; [29]", "value": 0}, {"measurement": "Plant response rating, Blackgrass", "setting": "[12]; [30]", "value": 0}, {"measurement": "Plant response rating, Cocklebur", "setting": "[13]; [29]", "value": 0}, {"measurement": "Plant response rating, Cocklebur", "setting": "[13]; [30]", "value": 0}, {"measurement": "Ducksalad plant response rating", "setting": "[14]; [31]", "value": 0}, {"measurement": "Plant response rating, Ducksalad", "setting": "[14]; [32]", "value": 0}, {"measurement": "Plant response rating, Ducksalad", "setting": "[14]; [33]", "value": 0}, {"measurement": "Plant response rating (scale 0 to 100), Ducksalad", "setting": "[14]; [34]", "value": 0}, {"measurement": "Flatsedge plant response rating", "setting": "[15]; [31]", "value": 0}, {"measurement": "Plant response rating, Flatsedge", "setting": "[15]; [32]", "value": 0}, {"measurement": "Plant response rating, Flatsedge", "setting": "[15]; [33]", "value": 0}, {"measurement": "Plant response rating (scale 0 to 100), Flatsedge", "setting": "[15]; [34]", "value": 0}, {"measurement": "Barnyardgrass plant response rating", "setting": "[16]; [31]", "value": 0}, {"measurement": "Plant response rating, Barnyardgrass", "setting": "[16]; [32]", "value": 0}, {"measurement": "Plant response rating, Barnyardgrass", "setting": "[16]; [33]", "value": 0}, {"measurement": "Plant response rating (scale 0 to 100), Barnyardgrass", "setting": "[16]; [34]", "value": 0}, {"measurement": "Rice plant response rating", "setting": "[17]; [31]", "value": 0}, {"measurement": "Plant response rating, Rice", "setting": "[17]; [32]", "value": 0}, {"measurement": "Plant response rating, Rice", "setting": "[17]; [33]", "value": 0}, {"measurement": "Plant response rating (scale 0 to 100), Rice", "setting": "[17]; [34]", "value": 0}, {"measurement": "Plant response rating, Crabgrass", "setting": "[18]; [35]", "value": 80}, {"measurement": "Plant response rating, Crabgrass", "setting": "[18]; [36]", "value": 0}, {"measurement": "Plant response rating, Corn", "setting": "[19]; [35]", "value": 0}, {"measurement": "Plant response rating, Corn", "setting": "[19]; [36]", "value": 0}, {"measurement": "Plant response rating, Surinam grass", "setting": "[20]; [35]", "value": 50}, {"measurement": "Plant response rating, Surinam grass", "setting": "[20]; [36]", "value": 0}, {"measurement": "Plant response rating, Foxtail, Giant", "setting": "[21]; [35]", "value": 0}, {"measurement": "Plant response rating, Foxtail, Giant", "setting": "[21]; [36]", "value": 0}, {"measurement": "Plant response rating, Lambsquarters", "setting": "[22]; [35]", "value": 0}, {"measurement": "Plant response rating, Lambsquarters", "setting": "[22]; [36]", "value": 0}, {"measurement": "Plant response rating, Pigweed", "setting": "[23]; [35]", "value": 0}, {"measurement": "Plant response rating, Pigweed", "setting": "[23]; [36]", "value": 0}, {"measurement": "Plant response rating, Morningglory", "setting": "[24]; [35]", "value": 0}, {"measurement": "Plant response rating, Morningglory", "setting": "[24]; [36]", "value": 0}, {"measurement": "Plant response rating, Barnyardgrass", "setting": "[25]; [35]", "value": 40}, {"measurement": "Plant response rating, Barnyardgrass", "setting": "[25]; [36]", "value": 0}, {"measurement": "Plant response rating, Velvetleaf", "setting": "[26]; [35]", "value": 80}, {"measurement": "Plant response rating, Velvetleaf", "setting": "[26]; [36]", "value": 0}, {"measurement": "Plant response rating, Rice", "setting": "[27]; [35]", "value": 70}, {"measurement": "Plant response rating, Rice", "setting": "[27]; [36]", "value": 30}, {"measurement": "Plant response rating, Cocklebur", "setting": "[28]; [35]", "value": 80}, {"measurement": "Plant response rating, Cocklebur", "setting": "[28]; [36]", "value": 0}]}]}
